Laboratory results: US4599334A, “7-(3-aryl-1-piperazinyl)- and 7-(3-cyclohexyl-1-piperazinyl)-3-quinolonecarboxylic acid antibacterials” (Bayer Aktiengesellschaft, priority 1984, dated 1986)
Values after ≈ are worked out from the molar mass of the structure shown.

Key:
Type in all cases: cell-based
Settings in all cases: agar dilution test/isosensitest agar, unit assumed
E. coli Neumann = experiment: MIC agar dilution test, E. coli Neumann
Source text: (§1) It has already been disclosed in J. Med. Chem. 23, 1358 (1980) that 1-ethyl-6-fluoro-1,4-dihydro-4-oxo-7-(1-piperazinyl)-3-quinolinecarboxylicacid (norfloxacin) has antibacterial properties.
(§2) MIC values (agar dilution test/isosensitest agar)

Klebsiella 8085 = experiment: MIC agar dilution test, Klebsiella 8085
Source text: as §1, §2

Klebsiella 6179 = experiment: MIC agar dilution test, Klebsiella 6179
Source text: as §1, §2

Klebsiella 57 USA = experiment: MIC agar dilution test, Klebsiella 57 USA
Source text: as §1, §2

Providencia 12052 = experiment: MIC agar dilution test, Providencia 12052
Source text: as §1, §2

Serratia 16040 = experiment: MIC agar dilution test, Serratia 16040
Source text: as §1, §2

Staphylococcus FK 422 = experiment: MIC agar dilution test, Staphylococcus FK 422
Source text: as §1, §2

Staphylococcus 1756 = experiment: MIC agar dilution test, Staphylococcus 1756
Source text: as §1, §2

Staphylococcus 133 = experiment: MIC agar dilution test, Staphylococcus 133
Source text: as §1, §2

Structure (SMILES) | MIC values (E. coli Neumann) [µg/mL] | MIC values (Klebsiella 8085) [µg/mL] | MIC values (Klebsiella 6179) [µg/mL] | MIC values (Klebsiella 57 USA) [µg/mL] | MIC values (Providencia 12052) [µg/mL] | MIC values (Serratia 16040) [µg/mL] | MIC values (Staphylococcus FK 422) [µg/mL] | MIC values (Staphylococcus 1756) [µg/mL] | MIC values (Staphylococcus 133) [µg/mL]
O=C(O)c1cn(C2CC2)c2cc(N3CCNC(c4ccccc4)C3)c(F)cc2c1=O (stereo not drawn) [Example 1, 1-cyclopropyl-6-fluoro-1,4-dihydro-4-oxo-7-(3-phenyl-1-piperazinyl)-3-quinolinecarboxylic acid] | 0.015 (≈ 0.0368 µM) | 0.015 (≈ 0.0368 µM) | 0.015 (≈ 0.0368 µM) | 0.06 (≈ 0.147 µM) | 4 (≈ 9.82 µM) | 8 (≈ 19.6 µM) | 0.015 (≈ 0.0368 µM) | 0.015 (≈ 0.0368 µM) | 0.015 (≈ 0.0368 µM)
O=C(O)c1cn(C2CC2)c2cc(N3CCNC(c4ccc(F)cc4)C3)c(F)cc2c1=O (stereo not drawn) [Example 2] | 0.015 (≈ 0.0353 µM) | 0.015 (≈ 0.0353 µM) | 0.06 (≈ 0.141 µM) | 0.25 (≈ 0.588 µM) | 8 (≈ 18.8 µM) | 16 (≈ 37.6 µM) | 0.03 (≈ 0.0705 µM) | 0.03 (≈ 0.0705 µM) | 0.06 (≈ 0.141 µM)
O=C(O)c1cn(C2CC2)c2cc(N3CCNC(c4ccc(Cl)cc4)C3)c(F)cc2c1=O (stereo not drawn) [Example 3] | 0.03 (≈ 0.0679 µM) | 0.03 (≈ 0.0679 µM) | 0.125 (≈ 0.283 µM) | 0.5 (≈ 1.13 µM) | 8 (≈ 18.1 µM) | 16 (≈ 36.2 µM) | 0.06 (≈ 0.136 µM) | 0.06 (≈ 0.136 µM) | 0.06 (≈ 0.136 µM)
COc1ccc(C2CN(c3cc4c(cc3F)c(=O)c(C(=O)O)cn4C3CC3)CCN2)cc1 (stereo not drawn) [Example 5] | 0.03 (≈ 0.0686 µM) | 0.03 (≈ 0.0686 µM) | 0.125 (≈ 0.286 µM) | 0.5 (≈ 1.14 µM) | 8 (≈ 18.3 µM) | 16 (≈ 36.6 µM) | 0.06 (≈ 0.137 µM) | 0.03 (≈ 0.0686 µM) | 0.06 (≈ 0.137 µM)
O=C(O)c1cn(C2CC2)c2cc(N3CCNC(c4ccc(N5CCCCC5)cc4)C3)c(F)cc2c1=O (stereo not drawn) [Example 8] | – | – | – | – | – | – | 0.015 (≈ 0.0306 µM) | 0.015 (≈ 0.0306 µM) | 0.03 (≈ 0.0612 µM)
O=C(O)c1cn(C2CC2)c2cc(N3CCNC(c4cccc([N+](=O)[O-])c4)C3)c(F)cc2c1=O (stereo not drawn) [Example 11] | – | – | – | – | – | – | 0.125 (≈ 0.276 µM) | 0.06 (≈ 0.133 µM) | 0.06 (≈ 0.133 µM)
O=C(O)c1cn(C2CC2)c2cc(N3CCNC(c4cccs4)C3)c(F)cc2c1=O (stereo not drawn) [Example 12] | 0.015 (≈ 0.0363 µM) | 0.015 (≈ 0.0363 µM) | 0.125 (≈ 0.302 µM) | 0.5 (≈ 1.21 µM) | 8 (≈ 19.3 µM) | 16 (≈ 38.7 µM) | 0.06 (≈ 0.145 µM) | 0.03 (≈ 0.0726 µM) | 0.03 (≈ 0.0726 µM)
Br.O=C(O)c1cn(C2CC2)c2cc(N3CCNC(c4ccc(O)cc4)C3)c(F)cc2c1=O (stereo not drawn) [Example 14, 1-cyclopropyl-6-fluoro-1,4-dihydro-7-[3-(4-hydroxyphenyl)-1-piperazinyl]-4-oxo-3-quinolinecarboxylic acid hydrobromide] | 0.015 | 0.03 | 0.25 | 0.125 | 32 | 8 | 0.125 | 0.5 | 0.125
O=C(O)c1cn(C2CC2)c2c(F)c(N3CCNC(c4ccccc4)C3)c(F)cc2c1=O (stereo not drawn) [Example 16, 1-cyclopropyl-6,8-difluoro-1,4-dihydro-4-oxo-7-(3-phenyl-1-piperazinyl)-3-quinolinecarboxylic acid] | 0.015 (≈ 0.0353 µM) | 0.015 (≈ 0.0353 µM) | 0.015 (≈ 0.0353 µM) | 0.125 (≈ 0.294 µM) | 4 (≈ 9.4 µM) | 2 (≈ 4.7 µM) | 0.015 (≈ 0.0353 µM) | 0.015 (≈ 0.0353 µM) | 0.015 (≈ 0.0353 µM)
CCn1cc(C(=O)O)c(=O)c2cc(F)c(N3CCNCC3)cc21 [Norfloxacin, 1-ethyl-6-fluoro-1,4-dihydro-4-oxo-7-(1-piperazinyl)-3-quinolinecarboxylicacid, reference compound] | 0.125 (≈ 0.391 µM) | 0.25 (≈ 0.783 µM) | 1 (≈ 3.13 µM) | 1 (≈ 3.13 µM) | 128 (≈ 401 µM) | 32 (≈ 100 µM) | 2 (≈ 6.26 µM) | 1 (≈ 3.13 µM) | 1 (≈ 3.13 µM)
